Molecular target: T1, LEH-P (thermostable limonene epoxide hydrolase) (Rhodococcus erythropolis, UniProt Q9ZAG3, T2A/S15P/A19K/E45K/T76K/T85V/N92K/Y96F, form not given)
T1 construct: gene limA; N-terminal hexa-His tag; expressed in E. coli; dimeric
Assay: initial velocities of diol formation, Michaelis-Menten fit
Assay type: biochemical
Conditions: buffer and temperature of kinetics not given (activity assays: 50 mM HEPES pH 8, 30 °C); variant SS16 from earlier study, mutations not given; read-out: K M [mM] ^[b]
Description: initial velocities of diol formation, Michaelis-Menten fit on LEH-P (thermostable limonene epoxide hydrolase)

T1 sequence (Q9ZAG3 whole entry T2A/S15P/A19K/E45K/T76K/T85V/N92K/Y96F, form open): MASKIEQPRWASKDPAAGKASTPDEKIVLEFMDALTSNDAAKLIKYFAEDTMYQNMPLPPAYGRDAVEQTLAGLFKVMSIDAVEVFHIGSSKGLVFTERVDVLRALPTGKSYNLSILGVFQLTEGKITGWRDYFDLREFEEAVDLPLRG

Km: 54 ± 4 mM
Structure (SMILES): C1CC2OC2C1 (stereo not shown) [1 a, cyclopentene oxide]
